What was measured:
C481S BTK protein = molecular target: T1, C481S BTK protein (Homo sapiens, UniProt Q06187, C481S); experiment: BTK protein degradation assay (Western blotting), C481S BTK; assay type: cell-based; details: concentration range accounting for 50% degradation of C481S BTK protein, 293T BTK MUT (C481S) cells
T1 construct: expressed in transfected cells; host or cells: 293T BTK MUT (C481S) cells
Experimental: TMD-8, RAMOS, or 293T BTK MUT (C481S) cells were treated with the synthesized compounds and measured for intracellular BTK protein levels by Western blotting. The protocol of the experiment using TMD-8 cells is as follows.
The 12-well plates were treated as follows. A 10 mM stock was 1/10 diluted in series with DMSO ([…]) to form final concentrations of 10, 1, 0.1, 0.01, 0.001, and 0.0001 mM. The compounds with such concentrations were applied to cells, followed by harvesting the cells 24 hours later. For a negative control, a 1/10 dilution of DMSO in the medium (3 mL DMSO+27 mL medium) was used.
The 1-mL cell culture in each well was passed many times through a pipette and then transferred into a 1.5-mL microtube before centrifugation (500 g, 5 min, 4° C.). The supernatant was discarded and the cell pellet was washed with PBS. After centrifugation (500 g, 5 min, 4° C.) again, the supernatant was discarded and the cell pellet was taken.
A lysis buffer was prepared as follows. RIPA buffer (Biosesang, RC2038-050-00)+0.5 mM PMSF (SIGMA, P7626)+1×Protease/Phosphatase Inhibitor (Cell signaling, 5872S) was added in an amount […] per well and left for 30 minutes on ice (vortexing at 0 and 30 minutes) before sonication (5 cycles of pulse for 10 seconds and rest for 30 seconds, 70% amplification). The supernatant obtained by centrifugation (15000 g, 15 min, 4° C.) was transferred into a new microtube. Cells in each well of 96-well plates were 1/2 diluted with the RIPA buffer and incubated at 37° C. for 30 minutes with […] of a 50:1 mixture of BCA reagents A and B in BCA Protein Assay Kit (iNtRON, 21071). After being cooled for 10 minutes, the 96-well plates were measured for absorbance at 562 nm on the BioTek, SYNERGY H1 microplate reader. Samples were prepared by protein quantification based on the absorbance measurements and then boiled at 70° C. for 10 minutes. The sample buffer used in the case was prepared by mixing a NuPAGE or a Bolt 4× sample buffer (Invitrogen) and its 10× sample reducing agent depending on the gel to be used, and protein dilution was made in a RIPI buffer.
The samples were loaded in the same amount into a NuPAGE or Bolt Bis-tris 4-12% gradient gel and allowed to run therein (200 V, 35 minutes). The separated proteins were transferred onto a […] NC membrane, using Trans-blot Turbo (BIO-RAD) (1.3 A constant, 25V limit, 15 minutes). The membrane was blocked at room temperature for 1 hour with skim milk or Intercept Blocking Buffer (LI-COR, 927-60001):0.1% TBST=1:1. The membrane was incubated with Anti BTK Rabbit (1:1,000 in 5% skim milk/0.2% TBST, size: 77 kDa, Cell signaling Technology) at 4° C. overnight O/N or at room temperature for 2 hours and with Anti GAPDH Rabbit (1:10,000 in 5% BSA/0.2% TBST, size: 36 kDa, GENETEX) and Anti β-actin mouse (1:10,000 in 5% BSA/0.2% TBST, RT, size: 43 kDa, GENETEX) at room temperature for 1 or 3 hours. Then, the membrane was washed three times with 0.5% TBST for 5 minutes each time before incubation with the second antibody Anti-Rabbit IgG (1:5,000 in 5% Skim milk/TBST, CST), IRDye® 800CW Goat anti-Rabbit IgG Secondary Antibody (1:10,000 in 5% skim/TBST, RT 45 min), or IRDye® 680RD Goat anti-Mouse IgG Secondary Antibody (1:10,000 in 5% skim/TBST, RT 45 min) for 45 minutes at room temperature in a rocker. The membrane was washed five times with 0.5% TBST for 5 minutes in each time, followed by detection with LI-COR, Odyssey. In this regard, the detection proceeded, as it was, for house-keeping genes while using SuperSignal West Pico PLUS Chemiluminescent Substrate or SuperSignal West femto Maximum Sensitivity Substrate for BTK detection.
According to the concentration ranges of compounds accounting for 50% degradation of WT BTK protein and C481S BTK protein, the activities are expressed as +++(0.0001-0.01 μM), ++(0.01-1 μM), +(1-10 μM), −(>10 μM), and NT (not tested). […]

WT BTK protein = molecular target: T2, WT BTK protein (Homo sapiens, UniProt Q06187); experiment: BTK protein degradation assay (Western blotting), WT BTK; assay type: cell-based; details: concentration range accounting for 50% degradation of WT BTK protein, TMD-8 or RAMOS cells, 24 hours
T2 construct: measured for intracellular BTK protein levels by Western blotting; endogenous in cells; host or cells: TMD-8 or RAMOS cells
Procedure, shortened: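 BTK levels were read by Western blotting (GAPDH and β-actin normalisers) in RIPA lysates of TMD-8 cells exposed to compounds for 24 h at 1×10^6 cells/mL. Results scored in ranges of the concentration producing 50% loss of WT BTK.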

T2 sequence (Q06187 whole entry): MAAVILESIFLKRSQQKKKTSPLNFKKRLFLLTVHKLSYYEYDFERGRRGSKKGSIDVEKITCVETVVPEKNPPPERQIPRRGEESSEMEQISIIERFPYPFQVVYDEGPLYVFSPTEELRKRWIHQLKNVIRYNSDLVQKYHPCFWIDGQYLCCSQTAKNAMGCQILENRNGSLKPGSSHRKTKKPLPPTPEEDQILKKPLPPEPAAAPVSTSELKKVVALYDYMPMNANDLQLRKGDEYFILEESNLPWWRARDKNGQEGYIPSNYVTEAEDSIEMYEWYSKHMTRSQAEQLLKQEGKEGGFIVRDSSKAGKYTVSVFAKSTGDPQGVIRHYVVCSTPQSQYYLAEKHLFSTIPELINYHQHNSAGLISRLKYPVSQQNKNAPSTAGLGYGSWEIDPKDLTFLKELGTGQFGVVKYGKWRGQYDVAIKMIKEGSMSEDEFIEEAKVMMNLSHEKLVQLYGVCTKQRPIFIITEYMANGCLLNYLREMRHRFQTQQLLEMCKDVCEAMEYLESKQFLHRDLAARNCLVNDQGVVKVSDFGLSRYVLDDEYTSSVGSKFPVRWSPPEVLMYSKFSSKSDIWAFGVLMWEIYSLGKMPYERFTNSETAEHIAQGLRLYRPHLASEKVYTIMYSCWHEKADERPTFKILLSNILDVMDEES
T1 sequence (Q06187 whole entry C481S): as the sequence (Q06187 whole entry) above, with C481S counted along it

Row | SMILES | DC50 (C481S BTK protein) [nM] | DC50 (WT BTK protein) [nM]
1 | Cc1cccc(C)c1Nc1nn(C)c2nc(Nc3ccc4c(c3)CN(C(=O)CCCCCNc3cccc5c3C(=O)N(C3CCC(=O)NC3=O)C5=O)CC4)ncc12 (stereo not drawn) [Compound 1, 4-((6-(7-((3-((2,6-Dimethylphenyl)amino)-1-methyl-1H-pyrazolo[3,4-d]pyrimidin-6-yl)amino)-3,4-dihydroisoquinolin-2 (1H)-yl)-6-oxohexyl)amino)-2-(2,6-dioxopiperidin-3-yl)isoindoline-1,3-dione] | > 10000 | 10 to 1000
2 | Cc1cccc(C)c1Nc1nn(C)c2nc(Nc3ccc4c(c3)CN(C(=O)COCCOCCNc3ccc5c(c3)C(=O)N(C3CCC(=O)NC3=O)C5=O)CC4)ncc12 (stereo not drawn) [Compound 2, 5-((2-(2-(2-(7-((3-((2,6-Dimethylphenyl)amino)-1-methyl-1H-pyrazolo[3,4-d]pyrimidin-6-yl)amino)-3,4-dihydroisoquinolin-2 (1H)-yl)-2-oxoethoxy)ethoxy)ethyl)amino)-2-(2,6-dioxopiperidin-3-yl)isoindoline-1,3-dione] | 10 to 1000 | 0.1 to 10
3 | Cc1cccc(C)c1Nc1nn(C)c2nc(Nc3ccc4c(c3)CN(C(=O)COCCOCCNc3cccc5c3C(=O)N(C3CCC(=O)NC3=O)C5=O)CC4)ncc12 (stereo not drawn) [Compound 3, 4-((2-(2-(2-(7-((3-((2,6-Dimethylphenyl)amino)-1-methyl-1H-pyrazolo[3,4-d]pyrimidin-6-yl)amino)-3,4-dihydroisoquinolin-2 (1H)-yl)-2-oxoethoxy)ethoxy)ethyl)amino)-2-(2,6-dioxopiperidin-3-yl)isoindoline-1,3-dione] | 1000 to 10000 | 0.1 to 10
4 | Cc1cccc(C)c1Nc1nn(C)c2nc(Nc3ccc4c(c3)CN(CC3CCN(C(=O)c5ccc6c(c5)CN(C5CCC(=O)NC5=O)C6=O)CC3)CC4)ncc12 (stereo not drawn) [Compound 258, 3-(5-(4-((7-((3-((2,6-Dimethylphenyl)amino)-1-methyl-1H-pyrazolo[3,4-d]pyrimidin-6-yl)amino)-3,4-dihydroisoquinolin-2 (1H)-yl)methyl)piperidine-1-carbonyl)-1-oxoisoindolin-2-yl)piperidin-2,6-one] |  | 0.1 to 10
5 | Cc1cccc(C)c1Nc1nn(C)c2nc(Nc3ccc4c(c3)CN(C(=O)/C(C#N)=C/C3CCN(C(=O)c5ccc6c(c5)CN(C5CCC(=O)NC5=O)C6=O)CC3)CC4)ncc12 (stereo not drawn) [Compound 259, (E)-2-(7-((3-((2,6-Dimethylphenyl)amino)-1-methyl-1H-pyrazolo[3,4-d]pyrimidin-6-yl)amino)-1,2,3,4-tetrahydroisoquinoline-2-carbonyl)-3-(1-(2-(2,6-dioxopiperidin-3-yl)-1-oxoisoindoline-5-carbonyl)piperidin-4-yl)acrylonitrile] |  | 10 to 1000
6 | Cc1cccc(C)c1Nc1nn(C)c2nc(Nc3ccc4c(c3)CN(C(=O)/C(C#N)=C/C3CCN(C(=O)CNc5ccc6c(c5)C(=O)N(C5CCC(=O)NC5=O)C6=O)CC3)CC4)ncc12 (stereo not drawn) [Compound 260, (E)-2-(7-((3-((2,6-Dimethylphenyl)amino)-1-methyl-1H-pyrazolo[3,4-d]pyrimidin-6-yl)amino)-1,2,3,4-tetrahydroisoquinoline-2-carbonyl)-3-(1-((2-(2,6-dioxopiperidin-3-yl)-1,3-dioxoisoindolin-5-yl)glycyl)piperidin-4-yl)acrylonitrile] |  | 0.1 to 10
7 | Cc1cccc(C)c1Nc1nn(C)c2nc(Nc3ccc(C4CCN(C(=O)/C(C#N)=C/C5CCN(C(=O)CNc6ccc7c(c6)C(=O)N(C6CCC(=O)NC6=O)C7=O)CC5)CC4)cc3)ncc12 (stereo not drawn) [Compound 261, (E)-2-(4-(4-((3-((2,6-Dimethylphenyl)amino)-1-methyl-1H-pyrazolo[3,4-d]pyrimidin-6-yl)amino)phenyl)piperidine-1-carbonyl)-3-(1-((2-(2,6-dioxopiperidin-3-yl)-1,3-dioxoisoindolin-5-yl)glycyl)piperidin-4-yl)acrylonitrile] |  | 0.1 to 10
8 | Cc1cccc(C)c1Nc1nn(C)c2nc(Nc3ccc(C4CCN(C(=O)C5CCN(c6ccc7c(c6)n(C)c(=O)n7C6CCC(=O)NC6=O)CC5)CC4)cc3)ncc12 (stereo not drawn) [Compound 262, 3-(5-(4-(4-(4-((3-((2,6-Dimethylphenyl)amino)-1-methyl-1H-pyrazolo[3,4-d]pyrimidin-6-yl)amino)phenyl)piperidine-1-carbonyl)piperidin-1-yl)-3-methyl-2-oxo-2,3-dihydro-1H-benzo[d]imidazol-1-yl)piperidin-2,6-one] |  | 0.1 to 10

Results, then the compound that gave them:

Row | DC50 (C481S BTK protein) [nM] | DC50 (WT BTK protein) [nM] | SMILES
9 |  | 0.1 to 10 | Cc1cccc(C)c1Nc1nn(C)c2nc(Nc3ccc(F)c(C4=CCN(C(=O)C5CN(c6ccc7c(c6)C(=O)N(C6CCC(=O)NC6=O)C7=O)C5)CC4)c3)ncc12 (stereo not drawn) [Compound 263, 5-(3-(4-(5-((3-((2,6-Dimethylphenyl)amino)-1-methyl-1H-pyrazolo[3,4-d]pyrimidin-6-yl)amino)-2-fluorophenyl)-1,2,3,6-tetrahydropyridine-1-carbonyl)azetidin-1-yl)-2-(2,6-dioxopiperidin-3-yl)isoindoline-1,3-dione]
10 |  | 0.1 to 10 | Cc1cccc(C)c1Nc1nn(C)c2nc(Nc3ccc4c(c3)CN(C(=O)C3CCN(c5ccc6c(c5)n(C)c(=O)n6C5CCC(=O)NC5=O)CC3)CC4)ncc12 (stereo not drawn) [Compound 264, 3-(5-(4-(7-((3-((2,6-Dimethylphenyl)amino)-1-methyl-1H-pyrazolo[3,4-d]pyrimidin-6-yl)amino)-1,2,3,4-tetrahydroisoquinoline-2-carbonyl)piperidin-1-yl)-3-methyl-2-oxo-2,3-dihydro-1H-benzo[d]imidazol-1-yl)piperidin-2,6-one]
11 |  | 0.1 to 10 | Cc1cccc(C)c1Nc1nn(C)c2nc(Nc3ccc(N4CCN(CC5CCN(c6ccc7c(c6)C(=O)N(C6CCC(=O)NC6=O)C7=O)CC5)CC4)nn3)ncc12 (stereo not drawn) [Compound 268, 5-(4-((4-(6-((3-((2,6-dimethylphenyl)amino)-1-methyl-1H-pyrazolo[3,4-d]pyrimidin-6-yl)amino)pyridazin-3-yl)piperazin-1-yl)methyl)piperidin-1-yl)-2-(2,6-dioxopiperidin-3-yl)isoindoline-1,3-dione]
12 |  | 0.1 to 10 | Cc1cccc(C)c1Nc1nn(C)c2nc(Nc3ccc(C4CCN(CC5CCN(c6cc7c(cc6F)C(=O)N(C6CCC(=O)NC6=O)C7)CC5)CC4)cc3)ncc12 (stereo not drawn) [Compound 272, 3-(5-(4-((4-(4-((3-((2,6-dimethylphenyl)amino)-1-methyl-1H-pyrazolo[3,4-d]pyrimidin-6-yl)amino)phenyl)piperidin-1-yl)methyl)piperidin-1-yl)-6-fluoro-1-oxoisoindolin-2-yl)piperidin-2,6-one]

Reference: patent US12161722B2, “Bifunctional heterocyclic compound having BTK degradation function via ubiquitin proteasome pathway, and use thereof” (KOREA RESEARCH INSTITUTE OF CHEMICAL TECHNOLOGY, priority 2021, dated 2024)
